Values quoted from earlier work as cited in patent publication US7129249B2, “Heterocyclic amide derivatives as inhibitors of glycogen phoshorylase” (AstraZeneca AB, priority 2002, dated 2006).

Columns and labels:
db/db and ob/ob mice = db/db and ob/ob mice following treatment
conscious dogs = details: following a glucagon challenge

| Structure (SMILES) | plasma glucose concentration (db/db and ob/ob mice) | glucagon stimulated glycogenolysis (hepatocytes) | glucose output (hepatocytes) | arterial plasma glucose (conscious dogs) | hepatic glucose output (conscious dogs) |
| --- | --- | --- | --- | --- | --- |
| O=C(N[C@@H](Cc1ccc(F)cc1)C(=O)N1CCC(O)CC1)c1cc2cc(Cl)ccc2[nH]1 [CP320626] | reduced, in a dose related manner | reduce | reduce | – | – |
| CN(C)C(=O)[C@H](O)[C@H](Cc1ccccc1)NC(=O)c1cc2cc(Cl)ccc2[nH]1 [CP91149] | reduced, in a dose related manner | reduce | reduce | – | – |
| CCN1C(C)=C(C(=O)OC(C)C)C(c2ccccc2Cl)C2=C1COC2=O (centres unmarked) [Bay R 3401] | – | – | – | reduced significantly | reduced significantly |
